Measurements taken from patent US9884849B2, “Fluorinated benzofuranyl-pyrimidine derivatives containing a sulfoximine group” (Bayer Pharma Aktiengesellschaft, priority 2014, dated 2018).
Where two headings read alike, the source gives them in different places.

Tests used:
CDK2/CycE = biological target: T1, CDK2/CycE (Homo sapiens, UniProt P24941); assay: CDK2/CycE high ATP kinase assay (Method 2b, TR-FRET); format: biochemical; settings: 2 mM ATP
T1 construct: GST; purchased ProQinase GmbH (Freiburg, Germany); host or cells: insect cells (Sf9)
Protocol: 2b. CDK2/CycE High ATP Kinase Assay:
CDK2/CycE-Inhibitory Activity of Compounds of the Present Invention at 2 mM Adenosine-Tri-Phosphate (ATP) was Quantified Employing the CDK2/CycE TR-FRET (TR-FRET=Time Resolved Fluorescence Energy Transfer) Assay as Described in the Following Paragraphs.
Recombinant fusion proteins of GST and human CDK2 and of GST and human CycE, expressed in insect cells (Sf9) and purified by Glutathion-Sepharose affinity chromatography, were purchase from ProQinase GmbH (Freiburg, Germany). As substrate for the kinase reaction biotinylated peptide biotin-Ttds-YISPLKSPYKISEG (C-terminus in amid form) was used which can be purchased e.g. form the company JERINI peptide technologies (Berlin, Germany).
For the assay 50 nl of a 100 fold concentrated solution of the test compound in DMSO was pipetted into a black low volume 384 well microtiter plate (Greiner Bio-One, Frickenhausen, Germany), 2 yl of a solution of CDK2/CycE in aqueous assay buffer [50 mM Tris/HCl pH 8.0, 10 mM MgCl2, 1.0 mM dithiothreitol, 0.1 mM sodium ortho-vanadate, 0.01% (v/v) Nonidet-P40 (Sigma)] were added and the mixture was incubated for 15 min at 22° C. to allow pre-binding of the test compounds to the enzyme before the start of the kinase reaction. […] The concentration of CDK2/CycE was adjusted depending of the activity of the enzyme lot and was chosen appropriate to have the assay in the linear range, typical concentrations were in the range of 15 ng/ml. The reaction was stopped by the addition of 5 yl of a solution of TR-FRET detection reagents (0.2 μM streptavidine-XL665 [Cisbio Bioassays, Codolet, France] and 1 nM anti-RB(pSer807/pSer811)-antibody from BD Pharmingen [#558389] and 1.2 nM LANCE EU-W1024 labeled anti-mouse IgG antibody [Perkin-Elmer, product no. AD0077, as an alternative a Terbium-cryptate-labeled anti-mouse IgG antibody from Cisbio Bioassays can be used]) in an aqueous EDTA-solution (100 mM EDTA, 0.2% (w/v) bovine serum albumin in 100 mM HEPES/NaOH pH 7.0).
The resulting mixture was incubated 1 h at 22° C. to allow the formation of complex between the phosphorylated biotinylated peptide and the detection reagents. Subsequently the amount of phosphorylated substrate was evaluated by measurement of the resonance energy transfer from the Eu-chelate to the streptavidine-XL. Therefore, the fluorescence emissions at 620 nm and 665 nm after excitation at 350 nm were measured in a TR-FRET reader, e.g. a Rubystar (BMG Labtechnologies, Offenburg, Germany) or a Viewlux (Perkin-Elmer). The ratio of the emissions at 665 nm and at […] was taken as the measure for the amount of phosphorylated substrate. The data were normalised (enzyme reaction without inhibitor=0% inhibition, all other assay components but no enzyme=100% inhibition).

HeLa cells = assay: Proliferation assay HeLa (Method 3); format: cell-based, human; settings: 4 days, crystal violet, read-out: Inhibition of HeLa cell proliferation IC50
Protocol: (§1) Cultivated tumour cells (HeLa, human cervical tumour cells, ATCC CCL-2; NCI-H460, human non-small cell lung carcinoma cells, ATCC HTB-177; A2780, human ovarian carcinoma cells, ECACC #93112519; DU 145, hormone-independent human prostate carcinoma cells, ATCC HTB-81; HeLa-MaTu-ADR, multidrug-resistant human cervical carcinoma cells, EPO-GmbH Berlin; Caco-2, human colorectal carcinoma cells, ATCC HTB-37; B16F10, mouse melanoma cells, ATCC CRL-6475) were plated at a density of 5,000 cells/well (DU145, HeLa-MaTu-ADR), 3,000 cells/well (NCI-H460, HeLa), 2,500 cells/well (A2780), 1,500 cells/well (Caco-2), or 1,000 cells/well (B16F10) in a 96-well multititer plate in 200 μL of their respective growth medium supplemented 10% fetal calf serum. After 24 hours, the cells of one plate (zero-point plate) were stained with crystal violet (see below), while the medium of the other plates was replaced by fresh culture medium (200 μl), to which the test substances were added in various concentrations (0 μM, as well as in the range of 0.001-10 μM; the final concentration of the solvent dimethyl sulfoxide was 0.5%). The cells were incubated for 4 days in the presence of test substances. Cell proliferation was determined by staining the cells with crystal violet: the cells were fixed by adding 20 μl/measuring point of an 11% glutaric aldehyde solution for 15 minutes at room temperature. After three washing cycles of the fixed cells with water, the plates were dried at room temperature. The cells were stained by adding 100 μl/measuring point of a 0.1% crystal violet solution (pH 3.0). After three washing cycles of the stained cells with water, the plates were dried at room temperature. The dye was dissolved by adding 100 μl/measuring point of a 10% acetic acid solution. The extinction was determined by photometry at a wavelength of 595 nm. The change of cell number, in percent, was calculated by normalization of the measured values to the extinction values of the zero-point plate (=0%) and the extinction of the untreated (0 μm) cells (=100%). The IC50 values (inhibitory concentration at 50% of maximal effect) were determined by means of a 4 parameter fit.

DU145 cells = assay: Proliferation assay DU145 (Method 3); format: cell-based, human; settings: DU145, 4 days, crystal violet, read-out: Inhibition of DU145 cell proliferation IC50
Protocol: as §1

Caco-2 cells = assay: Proliferation assay Caco-2 (Method 3); format: cell-based, human; settings: Caco-2, 4 days, crystal violet, read-out: Inhibition of Caco-2 cell proliferation IC50
Protocol: as §1

IC50 (CDK2/CycE) | IC50 (HeLa cells; Homo sapiens, 96 h) | IC50 (DU145 cells; Homo sapiens, DU-145, 96 h) | IC50 (Caco-2 cells; Homo sapiens, Caco-2, 96 h) | IC50 (HeLa cells) | IC50 (DU145 cells) | IC50 (Caco-2 cells) | Structure (SMILES)
913 nM | 31 nM | 41 nM | 47 nM |  |  |  | CS(=N)(=O)Cc1cc(F)cc(Nc2ncc(F)c(-c3ccc(F)c4ccoc34)n2)c1 (single isomer, unassigned) [Example 11, 5-Fluoro-4-(4-fluoro-1-benzofuran-7-yl)-N-{3-fluoro-5-[(S-methylsulfonimidoyl)-methyl]-phenyl}-pyrimidin-2-amine]
1250 nM |  |  |  | 30 nM | 62 nM | 57 nM | CS(=N)(=O)Cc1cc(F)cc(Nc2ncc(F)c(-c3ccc(F)c4ccoc34)n2)c1 (single isomer, unassigned) [Example 12, 5-Fluoro-4-(4-fluoro-1-benzofuran-7-yl)-N-{3-fluoro-5-[(S-methylsulfonimidoyl)-methyl]-phenyl}-pyrimidin-2-amine]
846 nM | 96 nM | 66 nM | 61 nM |  |  |  | Cc1cc(CS(C)(=O)=NC#N)cc(Nc2ncc(F)c(-c3ccc(F)c4ccoc34)n2)c1 (single isomer, unassigned) [Example 14, [(3-{[5-Fluoro-4-(4-fluoro-1-benzofuran-7-yl)pyrimidin-2-yl]amino}-5-methylbenzyl)-(methyl)oxido-λ^6-sulfanylidene]cyanamide]
835 nM |  |  |  | 107 nM | 101 nM | 68 nM | Cc1cc(CS(C)(=O)=NC#N)cc(Nc2ncc(F)c(-c3ccc(F)c4ccoc34)n2)c1 (single isomer, unassigned) [Example 15, [(3-{[5-Fluoro-4-(4-fluoro-1-benzofuran-7-yl)pyrimidin-2-yl]amino}-5-methylbenzyl)-(methyl)oxido-λ^6-sulfanylidene]cyanamide]
